Test results from patent publication US12234211B2, “Cycloolefin substituted heteroaromatic compounds and their use” (HUTCHISON MEDIPHARMA LIMITED, priority 2017, dated 2025).

Assays:
[1] = target: T1, IDH1-R132H (Homo sapiens, UniProt O75874, R132H); test: Fluorescent determination of IDH1-R132H cell activity (2-HG in U87MGR132H cells); format: cell-based; settings: 2-HG inhibition in U87MGR132H cells transfected with IDH1-R132H mutant plasmid
T1 construct: expressed in transfected cells; host or cells: U87MG cells (U87MGR132H)
T1 sequence (O75874 whole entry R132H): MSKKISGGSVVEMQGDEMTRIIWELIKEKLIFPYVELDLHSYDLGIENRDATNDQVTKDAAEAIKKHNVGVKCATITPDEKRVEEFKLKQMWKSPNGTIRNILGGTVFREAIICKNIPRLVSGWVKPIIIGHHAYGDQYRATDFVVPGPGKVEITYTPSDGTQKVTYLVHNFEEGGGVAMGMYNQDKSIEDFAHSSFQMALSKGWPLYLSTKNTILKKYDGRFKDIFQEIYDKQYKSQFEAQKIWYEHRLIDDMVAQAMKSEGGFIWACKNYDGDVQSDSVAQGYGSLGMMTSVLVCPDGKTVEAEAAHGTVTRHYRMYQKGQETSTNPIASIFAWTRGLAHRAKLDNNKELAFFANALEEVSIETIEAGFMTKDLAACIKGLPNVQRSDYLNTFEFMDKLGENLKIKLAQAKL

[2] = target: T2, IDH2-R140Q (Homo sapiens, UniProt P48735, R140Q); test: Fluorescent determination of IDH2-R140Q cell activity (2-HG in U87MGR140Q cells); format: cell-based; settings: 72 hours incubation, read-out: IC50 (2-HG inhibition)
T2 construct: expressed in transfected cells
T2 sequence (P48735 40-452 R140Q): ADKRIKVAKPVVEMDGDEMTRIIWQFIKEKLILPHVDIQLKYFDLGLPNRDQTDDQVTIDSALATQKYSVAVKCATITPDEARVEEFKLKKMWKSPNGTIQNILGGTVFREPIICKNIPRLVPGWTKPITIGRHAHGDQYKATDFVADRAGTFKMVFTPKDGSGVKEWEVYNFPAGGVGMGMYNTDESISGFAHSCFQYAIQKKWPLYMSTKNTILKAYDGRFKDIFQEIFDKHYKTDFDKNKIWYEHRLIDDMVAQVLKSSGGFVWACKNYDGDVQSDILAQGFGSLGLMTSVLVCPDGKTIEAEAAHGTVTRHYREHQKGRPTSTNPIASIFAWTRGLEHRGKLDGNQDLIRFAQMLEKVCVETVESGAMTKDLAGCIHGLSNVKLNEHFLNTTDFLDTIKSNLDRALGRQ
Procedure: Enzyme reaction solution: 1 mM nicotinamide adenine dinucleotide (NAD), 0.6 ng/μL D-2-hydroxyglutarate dehydrogenase (D2HGDH), 0.8 U/mL lipoamidase dehydrogenase (Diaphorase) and 60 μM Resazurin in 40 mM Tris.HCl pH 8.8 assay buffer.
Standard curve stock solution: The standard of 2-HG sodium salt was serially diluted in serum-free MEM medium to make a standard curve stock solution.
100 μL of U87MGR140Q cells were seeded at a density of 6×10^4/mL per well in a 96-well plate a.
From each well of 96-well plate a, 50 μL of the culture supernatant was transferred to the corresponding well of 96-well plate b; at the same time, 50 μL of standard curve stocking solution was added to other wells of 96-well plate b. Then 10 μl of 360 mM hydrochloric acid was added to all the wells. After shaking and mixing, the plate was placed on ice for 10 minutes, and then 10 μl of 420 mM Tris-base was added. After shaking and mixing, the plate was placed on ice for additional 5 minutes. Then the plate was centrifuged at 2500 rpm for 10 minutes.
After centrifuging, from each well of 96-well plate b, 20 μL of the supernatant was transferred to 96-well plate c. An additional 80 μL of the enzyme reaction solution was added to each well and incubated at 25° C. for 90 minutes.
A standard curve of the fluorescence value vs. the corresponding 2-HG concentration was made, and the 2-HG concentration corresponding to each concentration point of the compound was calculated, then the inhibition ratio was calculated, and the data was analyzed using XLfit5 (ID Business Solutions Limited) software to obtain the IC50 value.
The inhibition ratio was calculated as follows: Inhibition Ratio (IH %)=(1-2-HG concentration of test compound treated cells/2-HG concentration of control cells)×100%.

SMILES | IC50 [1] [nM] | IC50 [2] [nM]
C[C@@H](Nc1nc(NC2CC(F)(F)C2)nc(C2=C(F)C(O)C(F)CC2)n1)C(F)(F)F (single isomer, unassigned) [Compound 228] | 705 | 417
CCCNc1nc(N[C@H](C)C(F)(F)F)nc(C2=C(F)C(O)[C@H](F)CC2)n1 (single isomer, unassigned) [Compound 230] | > 10000 | 658
C[C@@H](Nc1nc(N[C@@H]2CCC(F)(F)C2)nc(C2=C(F)C(O)C(F)CC2)n1)C(F)(F)F (single isomer, unassigned) [Compound 233] | 628 | 368
OC1CCCCC(c2nc(NC3CC(F)(F)C3)nc(NC3CC(F)(F)C3)n2)=C1F (stereo not shown) [Compound 39, (*)3-(4,6-Bis((3,3-difluorocyclobutyl)amino)-1,3,5-triazin-2-yl)-2-fluorocyclohept-2-en-1-ol] | 1910 | 164
C[C@@H](Nc1nc(NC2CC(F)(F)C2)nc(C2=C(F)C(O)CCCC2)n1)C(F)(F)F (stereo partly shown) [Compound 40] | 450 | 106
C[C@@H](Nc1nc(NC(CF)CF)nc(C2=C(F)C(O)CCC2)n1)C(F)(F)F (stereo partly shown) [Compound 41] | 1630 | 297
CC(C)(C)ONc1nc(Nc2ccnc(Cl)c2)nc(C2=C(F)C(O)CCC2)n1 (stereo not shown) [Compound 47] | 5640 | 59
CC(C)Nc1nc(NC2CC(F)(F)C2)nc(C2=C(F)C(O)CCC2)n1 (stereo not shown) [Compound 51] | 6040 | 125
[2H]C([2H])([2H])C([2H])(Nc1nc(N[C@H](C)C(F)(F)F)nc(C2=C(F)C(O)CCC2)n1)C([2H])([2H])[2H] (stereo partly shown) [Compound 52] | 2240 | 229
[2H]C([2H])([2H])C([2H])(Nc1nc(Nc2ccnc(C(F)(F)F)c2)nc(C2=C(F)C(O)CCC2)n1)C([2H])([2H])[2H] (stereo not shown) [Compound 54] | 1680 | 15
CC(C)(C)ONc1nc(Nc2cc(C#N)ccn2)nc(C2=C(F)C(O)CCC2)n1 (stereo not shown) [Compound 60] | > 10000 | 590
CC(C)(C)ONc1nc(Nc2cc(Cl)ccn2)nc(C2=C(F)C(O)CCC2)n1 (stereo not shown) [Compound 61] | > 10000 | 170
CC(C)Nc1nc(Nc2ccc3ccccc3n2)nc(C2=C(F)C(O)CCC2)n1 (stereo not shown) [Compound 62] | 2700 | 1340
CC(C)Nc1nc(Nc2ccc3c(cnn3C)c2)nc(C2=C(F)C(O)CCC2)n1 (stereo not shown) [Compound 64] | > 10000 | 1630
CC(C)Nc1nc(Nc2ccc3sncc3c2)nc(C2=C(F)C(O)CCC2)n1 (stereo not shown) [Compound 65] | > 10000 | 152
CC(C)(O)CNc1nc(Nc2ccn3nccc3c2)nc(C2=C(F)C(O)CCC2)n1 (stereo not shown) [Compound 67] | > 10000 | 2370
CC(C)(C)ONc1nc(Nc2ccnc(F)c2)nc(C2=C(F)C(O)CCC2)n1 (stereo not shown) [Compound 73] | > 10000 | 64
CC(C)Nc1nc(Nc2ccnc(F)c2)nc(C2=C(F)C(O)CCC2)n1 (stereo not shown) [Compound 74] | 7440 | 34
CC(C)(C)ONc1nc(Nc2cc(C(F)(F)F)ncn2)nc(C2=C(F)C(O)CCC2)n1 (stereo not shown) [Compound 75] | > 10000 | 218
CC(C)CNc1nc(N[C@H](C)C(F)(F)F)nc(C2=C(F)C(O)CCC2)n1 (stereo partly shown) [Compound 78] | 1410 | 69
C[C@@H](Nc1nc(NCC(F)(F)F)nc(C2=C(F)C(O)CCC2)n1)C(F)(F)F (stereo partly shown) [Compound 79] | 1300 | 106
C[C@@H](Nc1nc(NCC2CC2)nc(C2=C(F)C(O)CCC2)n1)C(F)(F)F (stereo partly shown) [Compound 80] | 2700 | 79
CCCNc1nc(N[C@H](C)C(F)(F)F)nc(C2=C(F)C(O)CCC2)n1 (stereo partly shown) [Compound 81] | 3570 | 99
